Laboratory results: the Kinase Knowledgebase extract (Sharma et al. 2016)

Target: ROCK2 (human) (UniProt O75116)
Assay: Inhibition of ROCK2 Kinase Activity

ROCK2 (human), sequence (O75116 whole entry, looked up): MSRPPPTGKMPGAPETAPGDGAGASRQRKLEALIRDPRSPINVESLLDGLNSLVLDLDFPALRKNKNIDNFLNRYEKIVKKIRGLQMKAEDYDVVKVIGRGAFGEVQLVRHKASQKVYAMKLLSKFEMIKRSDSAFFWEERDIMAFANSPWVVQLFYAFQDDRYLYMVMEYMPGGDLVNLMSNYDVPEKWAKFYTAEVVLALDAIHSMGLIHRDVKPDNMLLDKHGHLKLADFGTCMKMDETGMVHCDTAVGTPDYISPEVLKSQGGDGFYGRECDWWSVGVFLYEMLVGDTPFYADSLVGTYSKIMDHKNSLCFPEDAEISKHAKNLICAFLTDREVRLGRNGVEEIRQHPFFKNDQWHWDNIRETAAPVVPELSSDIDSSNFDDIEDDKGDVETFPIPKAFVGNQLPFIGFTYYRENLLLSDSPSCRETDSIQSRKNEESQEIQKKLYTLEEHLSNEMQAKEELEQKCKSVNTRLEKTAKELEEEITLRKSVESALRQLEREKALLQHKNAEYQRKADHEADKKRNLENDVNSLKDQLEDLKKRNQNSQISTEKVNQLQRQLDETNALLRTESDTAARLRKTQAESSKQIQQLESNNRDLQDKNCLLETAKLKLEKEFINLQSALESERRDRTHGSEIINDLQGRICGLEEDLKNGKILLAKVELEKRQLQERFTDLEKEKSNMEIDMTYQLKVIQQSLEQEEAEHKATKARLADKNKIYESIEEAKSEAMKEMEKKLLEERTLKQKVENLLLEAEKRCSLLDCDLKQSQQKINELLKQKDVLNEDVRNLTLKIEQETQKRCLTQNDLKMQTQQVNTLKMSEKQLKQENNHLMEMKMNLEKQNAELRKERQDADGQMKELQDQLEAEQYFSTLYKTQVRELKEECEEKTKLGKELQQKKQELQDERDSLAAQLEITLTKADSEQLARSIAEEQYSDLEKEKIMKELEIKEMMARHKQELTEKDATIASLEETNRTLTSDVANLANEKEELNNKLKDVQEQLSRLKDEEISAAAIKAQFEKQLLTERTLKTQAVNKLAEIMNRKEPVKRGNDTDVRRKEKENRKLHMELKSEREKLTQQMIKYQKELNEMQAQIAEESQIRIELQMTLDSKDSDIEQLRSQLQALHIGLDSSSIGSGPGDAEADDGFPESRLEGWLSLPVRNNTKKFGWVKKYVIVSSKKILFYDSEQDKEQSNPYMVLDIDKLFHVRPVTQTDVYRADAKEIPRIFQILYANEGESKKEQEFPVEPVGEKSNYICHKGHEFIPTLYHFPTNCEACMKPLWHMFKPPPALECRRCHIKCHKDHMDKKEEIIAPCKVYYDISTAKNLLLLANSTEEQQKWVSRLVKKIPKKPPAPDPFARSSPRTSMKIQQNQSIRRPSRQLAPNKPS

| IC50 [nM] | SMILES |
| --- | --- |
| 40 | CN(C)S(=O)(=O)c1ccc2c(c1)CC(c1nc3ccc(-c4ccnc(N)n4)cc3[nH]1)CO2 (stereo unspecified) |
| 4.7 | Nc1nccc(-c2ccc3nc(C4COc5ccc(F)cc5C4)[nH]c3c2)n1 (stereo unspecified) |
| 316 | CCCOc1ccc2c(c1)CC(c1nc3ccc(-c4ccnc(N)n4)cc3[nH]1)CO2 (stereo unspecified) |
| 2.7 | CC(=O)c1ccc2c(c1)CC(c1nc3ccc(-c4ccnc(N)n4)cc3[nH]1)CO2 (stereo unspecified) |
| 0.8 | Nc1nccc(-c2ccc3nc(C4COc5ccc(CC(=O)NC6CC6)cc5C4)[nH]c3c2)n1 (stereo unspecified) |
| 43 | N#Cc1ccc2c(c1)CC(c1nc3ccc(-c4ccnc(N)n4)cc3[nH]1)CO2 (stereo unspecified) |
| 1.2 | Nc1nccc(-c2ccc3nc(C4COc5ccc(C(=O)NCCN6CCOCC6)cc5C4)[nH]c3c2)n1 (stereo unspecified) |
| < 1 | Nc1nccc(-c2ccc3nc(C4COc5ccc(C(=O)NCc6ccccc6)cc5C4)[nH]c3c2)n1 (stereo unspecified) |
| 10 | Nc1nccc(-c2ccc3nc(C4COc5ccc(Br)cc5C4)[nH]c3c2)n1 (stereo unspecified) |
| 1.2 | Nc1nccc(-c2ccc3nc(C4COc5ccc(C(=O)NC6CC6)cc5C4)[nH]c3c2)n1 (stereo unspecified) |
| 4 | NC(=O)c1ccc2c(c1)CC(c1nc3ccc(-c4ccnc(N)n4)cc3[nH]1)CO2 (stereo unspecified) |
